Measured values taken from patent publication US6866837B2, “Radiolabeled peptides for the diagnosis and treatment of breast and prostate tumors and metastases of such tumors” (Mallinckrodt Inc., priority 1998, dated 2005).
Where two headings read alike, the source gives them in different places.

How the values were obtained:
[1] = in vivo; conditions: rat, total radioactivity
[2] = tested on: bombesin receptor positive prolactinoma 7315b; conditions: female Lewis rats; visualized by scintigraphy
[3] = rats; cited from earlier work
[4] = Dynamic gamma camera: clearance and excretion of radioactivity; conditions: rat, in vivo
[5] = tested on: 7315b cells; conditions: read-out: agonistic activities on bombesin stimulated prolactin secretion, IC50
[6] = for 2 h after labeling with IN-111 up to 100 Mbq per jj. g; HPLC
[7] = rats
[8] = tested on: bombesin receptors; assay: Receptor autoradiography of human tumor tissue sections with the radioligand; format: binding
Experimental: Various tumor tissue samples, including surrounding tissue, were harvested from human patients and/or human cadavers, and frozen. The samples were cut on a cryostat, mounted on microscope slides, and then stored at −20° C. for […] improve adhesion of the tissue to the slide. The slide-mounted tissue sections were allowed to reach room temperature and preincubated in 50 mmol/1 Tris-HCl, 130 mmol/1 NaCl, 4.7 mmol/1 KCl, 5 mmol/I MgCl2, 1 mmol/l ethylene glycol-bi (b-aminoethylether)-N, N, N′, N′-tetraacetic acid, and 0.5% bovine serum albumin, pH 7.4 (preincubation solution), for 30 min. at 25° C. The slides are then incubated in a solution containing the same medium as the preincubation solution except the bovine serum albumin is omitted, and the following compounds are added: 20000 dpm/100 ml of the radioligand of Example 1, 0.025% bacitracin, 1 mmol/l dithiothreitol, 2 mg/ml chymostatin, and 4 mg/ml leupeptin, pH=6.5. The slides are incubated at room temperature with the radioligand for 150 min., as described by Mantyh et al. (Gasteroenterology, 1994, 107, 1019-30). After the incubation, the slides are rinsed with four washes of 30 sec each in ice-cold preincubation solution, pH 7.4, dipped in ice-cold water, and then quickly dried in a refrigerator under a stream of cold air. The sections are subsequently exposed to a ^3H Ultrofilm for 1 week, to detect the precise location of the radioactivity.
The films were evaluated to determine the ability to distinguish the tumor from the surrounding tissue.

[9] = Breat Cancer Metastases, 5 samples
[10] = Non Small Cell Lung Carcinoma, 34 samples
[11] = Prostate Cancer Metastases, 5 samples
[12] = Small Cell Lung Carcinoma, 10 samples
[13] = Uterus Leomyosarcoma Tumor, 3 samples
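Throughout, for Tissue RA, Pancreas: radiolabelled ligand targeting bombesin receptors, given by intravenous injection at varied injected mass.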
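Throughout, for ratio vs. blood, Adrenal: radiolabelled ligand targeting bombesin receptors, given by intravenous injection at varied injected mass.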
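Throughout, for ratio vs. blood, Colon: radiolabelled ligand targeting bombesin receptors, given by intravenous injection at varied injected mass.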
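Throughout, for uptake in pancreas and tissues of the GI tract: radiolabelled ligand targeting bombesin receptors, given by intravenous injection at varied injected mass.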

Compound: CSCC[C@H](NC(=O)[C@H](CC(C)C)NC(=O)[C@H](Cc1c[nH]cn1)NC(=O)CNC(=O)[C@@H](NC(=O)[C@H](C)NC(=O)[C@H](Cc1c[nH]c2ccccc12)NC(=O)[C@H](CCC(N)=O)NC(=O)[C@H](CC(N)=O)NC(=O)CNC(=O)[C@H](Cc1ccc(O)cc1)NC(=O)[C@H](CCCNC(=N)N)NC(=O)[C@H](CCC(N)=O)NC(=O)[C@@H]1CCCN1C(=O)CN(CCN(CCN(CC(=O)O)CC(=O)O)CC(=O)O)CC(=O)O)C(C)C)C(N)=O [[^111In-DTPA^0, Pro^1, Tyr^4] bombesin, metal not drawn]
- tissue uptake at 48 h ([1]; adrenal, 0.01 ug): 0.029 %ID/g
- tissue uptake at 48 h ([1]; adrenal, 0.025 ug): 0.03 %ID/g
- tissue uptake at 48 h ([1]; adrenal, 0.1 ug): 0.022 %ID/g
- tissue uptake at 48 h ([1]; adrenal, 0.5 ug): 0.014 %ID/g
- tissue uptake at 48 h ([1]; blood, 0.01 ug): 0.0009 %ID/g
- tissue uptake at 48 h ([1]; blood, 0.025 ug): 0.001 %ID/g
- tissue uptake at 48 h ([1]; blood, 0.5 ug): 0.0008 %ID/g
- tissue uptake at 48 h ([1]; blood, iv, 0.1 ug): 0.0009 %ID/g
- tissue uptake at 48 h ([1]; bombesin receptor positive tissues): 0.025 %ID/g
- tissue uptake at 48 h ([1]; colon, 0.01 ug): 0.072 %ID/g
- tissue uptake at 48 h ([1]; colon, 0.025 ug): 0.063 %ID/g
- tissue uptake at 48 h ([1]; colon, 0.1 ug): 0.061 %ID/g
- tissue uptake at 48 h ([1]; colon, 0.5 ug): 0.036 %ID/g
- tissue uptake at 48 h ([1]; pancreas, 0.025 ug): 1.2 %ID/g
- tissue uptake at 48 h ([1]; pancreas, 0.1 ug): 0.72 %ID/g
- tissue uptake at 48 h ([1]; pancreas, 0.5 ug): 0.43 %ID/g
- tissue uptake at 48 h ([1]; stomach, 0.01 ug): 0.035 %ID/g
- tissue uptake at 48 h ([1]; stomach, 0.025 ug): 0.065 %ID/g
- tissue uptake at 48 h ([1]; stomach, 0.1 ug): 0.042 %ID/g
- tissue uptake at 48 h ([1]; stomach, 0.5 ug): 0.036 %ID/g
- uptake in bombesin receptor positive prolactinoma 7315b [2]: Specific uptake
- clearance of radioactivity from the blood compartment (dynamic gamma camera): rapid clearance
- urinary excretion (in 1 h): 35%
- urinary excretion (in 20 h): 70%
- uptake in the pancreas and tissues of the GI-tract [3]: high and specific uptake
- total body retention [4]: 10%
- IC50 [5]: 8 nM
- radiochemically stable [6]: > 95%
- uptake in pancreas and tissues of the GI tract [7]: high and specific uptake
- Tissue RA, Pancreas ([7]; 48 h after injection, 0.01 μg): 1.0 % ID/g
- ratio vs. blood, Adrenal ([7]; 48 h after injection, 0.01 μg): 34
- ratio vs. blood, Colon ([7]; 48 h after injection, 0.01 μg): 85
- ratio vs. blood, Pancreas ([7]; 48 h after injection, 0.01 μg): 1210
- ratio vs. blood, Stomach ([7]; 48 h after injection, 0.01 μg): 40
- ratio vs. blood, Adrenal ([7]; 48 h after injection, 0.025 μg): 30
- ratio vs. blood, Colon ([7]; 48 h after injection, 0.025 μg): 64
- ratio vs. blood, Pancreas ([7]; 48 h after injection, 0.025 μg): 1217
- ratio vs. blood, Stomach ([7]; 48 h after injection, 0.025 μg): 64
- ratio vs. blood, Adrenal ([7]; 48 h after injection, 0.1 μg): 26
- ratio vs. blood, Colon ([7]; 48 h after injection, 0.1 μg): 73
- ratio vs. blood, Pancreas ([7]; 48 h after injection, 0.1 μg): 856
- ratio vs. blood, Stomach ([7]; 48 h after injection, 0.1 μg): 50
- ratio vs. blood, Adrenal ([7]; 48 h after injection, 0.5 μg): 18
- ratio vs. blood, Colon ([7]; 48 h after injection, 0.5 μg): 52
- ratio vs. blood, Pancreas ([7]; 48 h after injection, 0.5 μg): 574
- ratio vs. blood, Stomach ([7]; 48 h after injection, 0.5 μg): 50

Compound: pGlu-Gln-Arg-Tyr-Gly-Asn-Gln-Trp-Ala-Val-Gly-His-Leu-Met-NH2 [[^125I-Tyr^4] bombesin]
- % Positive ([8]; Breast Cancer, 95 samples): 69%
- Number Positive ([8]; Breast Cancer, 95 samples): 66
- % Positive [8, 9]: 100%
- Number Positive [8, 9]: 5
- % Positive ([8]; Colon Cancer, 18 samples): 6%
- Number Positive ([8]; Colon Cancer, 18 samples): 1
- % Positive ([8]; Gastric Cancer, 27 samples): 0%
- Number Positive ([8]; Gastric Cancer, 27 samples): 0
- % Positive ([8]; Gastrinomas, 4 samples): 100%
- Number Positive ([8]; Gastrinomas, 4 samples): 4
- % Positive ([8]; Glioblastomas, 4 samples): 100%
- Number Positive ([8]; Glioblastomas, 4 samples): 4
- % Positive ([8]; Melanomas, 8 samples): 12%
- Number Positive ([8]; Melanomas, 8 samples): 1
- % Positive [8, 10]: 0%
- Number Positive [8, 10]: 0
- % Positive ([8]; Pancreatic Cancer, 28 samples): 0%
- Number Positive ([8]; Pancreatic Cancer, 28 samples): 0
- % Positive [8, 11]: 100%
- Number Positive [8, 11]: 5
- % Positive ([8]; Prostate Cancer, 28 samples): 100%
- Number Positive ([8]; Prostate Cancer, 28 samples): 28
- % Positive [8, 12]: 20%
- Number Positive [8, 12]: 2
- % Positive [8, 13]: 33%
- Number Positive [8, 13]: 1
